Measured values published in PubChem BioAssay AID2060887 (Molecular Pharmacology Branch, DTP, NCI, 2025).
pIC50: −log10 of the molar value. Each block holds one compound with its values, some of them ahead of it.

Tested on: 782815-120-R-J1-PDC complex spheroid viability
Test: Anticancer human tumor 782815-120-R-J1-PDC patient-derived colon adenocarcinoma cell line growth inhibition [RAS]
Settings: for pIC50: curve of first compound; for viability, T/C: stronger effect = lower value
Outline: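 Multi-cell-type spheroids: tumor cells plus HUVEC endothelial cells and mesenchymal stem cells. RAS-pathway inhibitors were combined with targeted agents, each dosed in half-log steps down from clinical Cmax, or from 10 microM when Cmax was unknown.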

[1] = second compound 0.00316 µM, first compound 0.0316 µM
[2] = second compound 0.00316 µM, first compound 0.1 µM
[3] = second compound 0.00316 µM, first compound 0.316 µM
[4] = second compound 0.00316 µM, first compound 1 µM
[5] = second compound 0.00316 µM, first compound 3.16 µM
[6] = second compound 0.00316 µM, first compound 10 µM
[7] = second compound 0.01 µM, first compound 0.0316 µM
[8] = second compound 0.01 µM, first compound 0.1 µM
[9] = second compound 0.01 µM, first compound 0.316 µM
[10] = second compound 0.01 µM, first compound 1 µM
[11] = second compound 0.01 µM, first compound 3.16 µM
[12] = second compound 0.01 µM, first compound 10 µM
[13] = second compound 0.0316 µM, first compound 0.0316 µM
[14] = second compound 0.0316 µM, first compound 0.1 µM
[15] = second compound 0.0316 µM, first compound 0.316 µM
[16] = second compound 0.0316 µM, first compound 1 µM
[17] = second compound 0.0316 µM, first compound 3.16 µM
[18] = second compound 0.0316 µM, first compound 10 µM
[19] = second compound 0.1 µM, first compound 0.0316 µM
[20] = second compound 0.1 µM, first compound 0.1 µM
[21] = second compound 0.1 µM, first compound 0.316 µM
[22] = second compound 0.1 µM, first compound 1 µM
[23] = second compound 0.1 µM, first compound 3.16 µM
[24] = second compound 0.1 µM, first compound 10 µM
[25] = second compound 0.316 µM, first compound 0.0316 µM
[26] = second compound 0.316 µM, first compound 0.1 µM
[27] = second compound 0.316 µM, first compound 0.316 µM
[28] = second compound 0.316 µM, first compound 1 µM
[29] = second compound 0.316 µM, first compound 3.16 µM
[30] = second compound 0.316 µM, first compound 10 µM
[31] = second compound 1 µM, first compound 0.0316 µM
[32] = second compound 1 µM, first compound 0.1 µM
[33] = second compound 1 µM, first compound 0.316 µM
[34] = second compound 1 µM, first compound 1 µM
[35] = second compound 1 µM, first compound 3.16 µM
[36] = second compound 1 µM, first compound 10 µM
[37] = second compound 0.000949 µM, first compound 0.0316 µM
[38] = second compound 0.000949 µM, first compound 0.1 µM
[39] = second compound 0.000949 µM, first compound 0.316 µM
[40] = second compound 0.000949 µM, first compound 1 µM
[41] = second compound 0.003 µM, first compound 0.0316 µM
[42] = second compound 0.003 µM, first compound 0.1 µM
[43] = second compound 0.003 µM, first compound 0.316 µM
[44] = second compound 0.003 µM, first compound 1 µM
[45] = second compound 0.00949 µM, first compound 0.0316 µM
[46] = second compound 0.00949 µM, first compound 0.1 µM
[47] = second compound 0.00949 µM, first compound 0.316 µM
[48] = second compound 0.00949 µM, first compound 1 µM
[49] = second compound 0.03 µM, first compound 0.0316 µM
[50] = second compound 0.03 µM, first compound 0.1 µM
[51] = second compound 0.03 µM, first compound 0.316 µM
[52] = second compound 0.03 µM, first compound 1 µM
[53] = second compound 0.0949 µM, first compound 0.0316 µM
[54] = second compound 0.0949 µM, first compound 0.1 µM
[55] = second compound 0.0949 µM, first compound 0.316 µM
[56] = second compound 0.0949 µM, first compound 1 µM
[57] = second compound 0.3 µM, first compound 0.0316 µM
[58] = second compound 0.3 µM, first compound 0.1 µM
[59] = second compound 0.3 µM, first compound 0.316 µM
[60] = second compound 0.3 µM, first compound 1 µM
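Also: spheroids exposed to compounds for 7 days before reading.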
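For viability, T/C in this document: 100% = DMSO vehicle control viability.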

pIC50 (second compound 0.00316 µM): < 5.00
pIC50 (second compound 0.01 µM): < 5.00
pIC50 (second compound 0.0316 µM): < 5.00
pIC50 (second compound 0.1 µM): < 5.00
pIC50 (second compound 0.316 µM): < 5.00
pIC50 (second compound 1 µM): < 5.00
SMILES: C[C@@H](NC(=O)c1ncnc(N)c1Cl)c1ncc(C(=O)Nc2cc(C(F)(F)F)c(Cl)cn2)s1 + C=CC(=O)N1CCN(c2nc(OCC3CCCN3C)nc3c(F)c(-c4nc(N)cc(C)c4C(F)(F)F)c(Cl)cc23)C(C)C1
viability, T/C [1]: 100%
viability, T/C [2]: 106%
viability, T/C [3]: 97%
viability, T/C [4]: 86%
viability, T/C [5]: 83.8%
viability, T/C [6]: 72.1%
viability, T/C [7]: 104%
viability, T/C [8]: 105%
viability, T/C [9]: 104%
viability, T/C [10]: 88.6%
viability, T/C [11]: 80.8%
viability, T/C [12]: 71.8%
viability, T/C [13]: 116%
viability, T/C [14]: 107%
viability, T/C [15]: 96.6%
viability, T/C [16]: 90%
viability, T/C [17]: 90.2%
viability, T/C [18]: 71.2%
viability, T/C [19]: 111%
viability, T/C [20]: 101%
viability, T/C [21]: 96.8%
viability, T/C [22]: 99.8%
viability, T/C [23]: 89.9%
viability, T/C [24]: 66.3%
viability, T/C [25]: 108%
viability, T/C [26]: 113%
viability, T/C [27]: 97.3%
viability, T/C [28]: 101%
viability, T/C [29]: 85%
viability, T/C [30]: 74.5%
viability, T/C [31]: 114%
viability, T/C [32]: 108%
viability, T/C [33]: 98.5%
viability, T/C [34]: 110%
viability, T/C [35]: 92.6%
viability, T/C [36]: 65.5%

pIC50 (second compound 0.000949 µM): 7.68
pIC50 (second compound 0.003 µM): 7.90
pIC50 (second compound 0.00949 µM): > 8.50
pIC50 (second compound 0.03 µM): > 8.50
pIC50 (second compound 0.0949 µM): > 8.50
pIC50 (second compound 0.3 µM): > 8.50
SMILES: Nc1ccn(C2OC(CO)C(O)C2(F)F)c(=O)n1 (stereo not drawn) + CCn1c(-c2cc(N3CCN(C)CC3)cnc2C(C)OC)c2c3cc(ccc31)-c1csc(n1)CC(NC(=O)C1CC1C)C(=O)N1CCCC(N1)C(=O)OCC(C)(C)C2
viability, T/C (second compound 0.000949 µM, first compound 0.00316 µM): 74%
viability, T/C (second compound 0.000949 µM, first compound 0.01 µM): 53.4%
viability, T/C [37]: 48.6%
viability, T/C [38]: 35.9%
viability, T/C [39]: 28.4%
viability, T/C [40]: 23.6%
viability, T/C (second compound 0.003 µM, first compound 0.00316 µM): 60.9%
viability, T/C (second compound 0.003 µM, first compound 0.01 µM): 51.7%
viability, T/C [41]: 40%
viability, T/C [42]: 25%
viability, T/C [43]: 25.5%
viability, T/C [44]: 23.7%
viability, T/C (second compound 0.00949 µM, first compound 0.00316 µM): 30.8%
viability, T/C (second compound 0.00949 µM, first compound 0.01 µM): 33.3%
viability, T/C [45]: 23.1%
viability, T/C [46]: 23%
viability, T/C [47]: 17.1%
viability, T/C [48]: 18%
viability, T/C (second compound 0.03 µM, first compound 0.00316 µM): 20.1%
viability, T/C (second compound 0.03 µM, first compound 0.01 µM): 21.2%
viability, T/C [49]: 15.7%
viability, T/C [50]: 13.3%
viability, T/C [51]: 13.7%
viability, T/C [52]: 14.1%
viability, T/C (second compound 0.0949 µM, first compound 0.00316 µM): 15.7%
viability, T/C (second compound 0.0949 µM, first compound 0.01 µM): 15.9%
viability, T/C [53]: 13.3%
viability, T/C [54]: 11.6%
viability, T/C [55]: 13.2%
viability, T/C [56]: 10.7%
viability, T/C (second compound 0.3 µM, first compound 0.00316 µM): 15.7%
viability, T/C (second compound 0.3 µM, first compound 0.01 µM): 16.1%
viability, T/C [57]: 16.1%
viability, T/C [58]: 13.2%
viability, T/C [59]: 12.6%
viability, T/C [60]: 10.2%

pIC50 (second compound 0.000949 µM): < 5.00
pIC50 (second compound 0.003 µM): < 5.00
pIC50 (second compound 0.00949 µM): < 5.00
pIC50 (second compound 0.03 µM): < 5.00
pIC50 (second compound 0.0949 µM): 5.01
pIC50 (second compound 0.3 µM): < 5.00
SMILES: C[C@@H](NC(=O)c1ncnc(N)c1Cl)c1ncc(C(=O)Nc2cc(C(F)(F)F)c(Cl)cn2)s1 + CCn1c(-c2cccnc2C(C)OC)c2c3cc(ccc31)N1CCOC(CC(NC(=O)C(C(C)C)N(C)C(=O)C3(F)CCN(C(=O)C#CC(C)(C)N(C)C)CC3)C(=O)N3CCCC(N3)C(=O)OCC(C)(C)C2)C1
viability, T/C [37]: 106%
viability, T/C [38]: 103%
viability, T/C [39]: 105%
viability, T/C [40]: 79.2%
viability, T/C (second compound 0.000949 µM, first compound 3.16 µM): 56.9%
viability, T/C (second compound 0.000949 µM, first compound 10 µM): 56.3%
viability, T/C [41]: 107%
viability, T/C [42]: 100%
viability, T/C [43]: 103%
viability, T/C [44]: 65.6%
viability, T/C (second compound 0.003 µM, first compound 3.16 µM): 59.6%
viability, T/C (second compound 0.003 µM, first compound 10 µM): 51.9%
viability, T/C [45]: 104%
viability, T/C [46]: 108%
viability, T/C [47]: 91.2%
viability, T/C [48]: 83.1%
viability, T/C (second compound 0.00949 µM, first compound 3.16 µM): 61.2%
viability, T/C (second compound 0.00949 µM, first compound 10 µM): 55%
viability, T/C [49]: 103%
viability, T/C [50]: 110%
viability, T/C [51]: 93.7%
viability, T/C [52]: 79.2%
viability, T/C (second compound 0.03 µM, first compound 3.16 µM): 72.4%
viability, T/C (second compound 0.03 µM, first compound 10 µM): 53.3%
viability, T/C [53]: 96.6%
viability, T/C [54]: 101%
viability, T/C [55]: 93.4%
viability, T/C [56]: 78.4%
viability, T/C (second compound 0.0949 µM, first compound 3.16 µM): 61.1%
viability, T/C (second compound 0.0949 µM, first compound 10 µM): 49.4%
viability, T/C [57]: 89.3%
viability, T/C [58]: 95%
viability, T/C [59]: 96.4%
viability, T/C [60]: 84%
viability, T/C (second compound 0.3 µM, first compound 3.16 µM): 69.8%
viability, T/C (second compound 0.3 µM, first compound 10 µM): 52.5%

pIC50 (second compound 0.00316 µM): < 5.00
pIC50 (second compound 0.01 µM): < 5.00
pIC50 (second compound 0.0316 µM): < 5.00
pIC50 (second compound 0.1 µM): < 5.00
pIC50 (second compound 0.316 µM): < 5.00
pIC50 (second compound 1 µM): < 5.00
SMILES: NC1c2ccccc2OC12CCN(c1cnc3c(N4CCCc5ncccc54)n[nH]c3n1)CC2 (stereo not drawn) + C=CC(=O)N1CCN(c2nc(OCC3CCCN3C)nc3c(F)c(-c4nc(N)cc(C)c4C(F)(F)F)c(Cl)cc23)C(C)C1
viability, T/C [1]: 94.4%
viability, T/C [2]: 110%
viability, T/C [3]: 95.4%
viability, T/C [4]: 93.8%
viability, T/C [5]: 98.2%
viability, T/C [6]: 84.4%
viability, T/C [7]: 98.4%
viability, T/C [8]: 95.6%
viability, T/C [9]: 89%
viability, T/C [10]: 91.3%
viability, T/C [11]: 93.8%
viability, T/C [12]: 82.8%
viability, T/C [13]: 96.4%
viability, T/C [14]: 107%
viability, T/C [15]: 98.3%
viability, T/C [16]: 100%
viability, T/C [17]: 99.7%
viability, T/C [18]: 71.9%
viability, T/C [19]: 95.1%
viability, T/C [20]: 105%
viability, T/C [21]: 91.7%
viability, T/C [22]: 107%
viability, T/C [23]: 95.8%
viability, T/C [24]: 79.7%
viability, T/C [25]: 98%
viability, T/C [26]: 90.9%
viability, T/C [27]: 88.5%
viability, T/C [28]: 100%
viability, T/C [29]: 94.3%
viability, T/C [30]: 74.6%
viability, T/C [31]: 108%
viability, T/C [32]: 86.4%
viability, T/C [33]: 103%
viability, T/C [34]: 93.3%
viability, T/C [35]: 91.8%
viability, T/C [36]: 77.8%
